In patent publication US9387219B2, “Edible composition” (Conopco, Inc., priority 2011, dated 2016):
Where “and” joins values, the source holds several entries; their conditions need not be identical. Identical values can stand only once.

How the values were obtained:
GLUT2 = biological target: T1, GLUT2 (Homo sapiens, UniProt P11168); experiment: Glucose transport inhibitor cell screening assay, 25 mM D-glucose for 30 minutes (GLUT2 inhibition); assay type: cell-based; conditions: for GLUT2 inhibitory activity (in words): Caco-2 cell model
T1 construct: endogenous in cells; host or cells: differentiated Caco-2 cell monolayers (ATCC)
T1 sequence (P11168 1-524): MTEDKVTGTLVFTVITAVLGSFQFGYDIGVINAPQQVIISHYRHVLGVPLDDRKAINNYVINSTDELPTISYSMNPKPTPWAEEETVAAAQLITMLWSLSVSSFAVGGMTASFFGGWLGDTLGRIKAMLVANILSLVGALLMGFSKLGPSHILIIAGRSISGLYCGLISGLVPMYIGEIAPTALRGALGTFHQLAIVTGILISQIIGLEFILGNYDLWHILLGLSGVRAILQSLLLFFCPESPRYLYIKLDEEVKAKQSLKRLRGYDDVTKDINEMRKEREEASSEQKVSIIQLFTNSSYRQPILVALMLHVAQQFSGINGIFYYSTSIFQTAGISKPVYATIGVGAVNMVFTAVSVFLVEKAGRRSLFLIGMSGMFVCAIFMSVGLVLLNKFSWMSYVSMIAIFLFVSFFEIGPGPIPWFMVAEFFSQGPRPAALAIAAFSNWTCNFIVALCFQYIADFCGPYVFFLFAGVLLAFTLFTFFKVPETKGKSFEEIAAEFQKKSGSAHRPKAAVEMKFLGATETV
Description: (§1) Human epithelial colorectal adenocarcinoma (Caco-2) cells were obtained from the American Type Culture Collection (ATCC) and cultured in Growth Medium consisting of Dulbecco's modified Eagle's medium (containing Glutamax-1, 4.5 g/L D-glucose and 25 mM 4-(2-hydroxyethyl)-1-piperazine ethanesulphonic acid (Hepes) (Invitrogen)), 10% foetal bovine serum (Sigma), 1% non-essential amino acids (Invitrogen) and 1 mM sodium pyruvate (Sigma)). The cells were routinely passaged at approximately 80% confluence using TrypLE™ Express Stable Trypsin-Like Enzyme (Invitrogen) to detach the cells, and seeded at approximately 114 cells per mm^2 in fresh tissue culture flasks. Only cells between the passage numbers 45 and 49 were used for experiments.
(§2) Corning® HTS Transwell® 96 well permeable insert supports (Sigma) were collagen coated with 40 μl of 50 μg/ml rat tail collagen type I (BD Biosciences) in 0.02 M acetic acid for one hour at room temperature under sterile conditions. The inserts were washed twice in phosphate buffered saline (PBS (Invitrogen)) and the Caco-2 cells seeded into the inserts at 9.6×10^5 cell/ml (75 μl per insert) in Growth Medium and 30 ml of Growth Medium added to the feeder plate below. The cells were left to attach to the collagen matrix and form monolayers over 48 hours at 37° C., 5% CO2. Both inserts and feeder plate were washed in PBS and the cells incubated with BD Entero-STIM™ Enterocyte Differentiation Medium containing MITO+™ Serum Extender solution (both BD Biosciences), 75 μl per insert and 30 ml in the feeder plate, for a further 48 hours at 37° C., 5% CO2.
(§3) Differentiated cell monolayers were washed gently in Dulbecco's Phosphate Buffered Saline containing CaCl2 and MgCl2 (PBS(+) (Invitrogen)) and the inserts transferred to a new Corning® HTS Transwell®-96 well receiver plate (Sigma). The cells were incubated with fresh PBS(+) (75 μl per insert and 225 μl per well) for 60 minutes at 37° C., 5% CO2. The PBS(+) was gently aspirated and replaced with 75 μl per insert of either 5 mM D-glucose (Sigma)±test active or 25 mM D-glucose±test active in triplicate and 225 μl per well of PBS(+) quickly added to each well. The 5 mM glucose wells and the 25 mM glucose wells were incubated at 37° C., 5% CO2 for 15 minutes and 30 minutes, respectively. Details of all the actives tested are found in table 1. The cell inserts were transferred to a new receiver plate, the supernatant gently aspirated from the cells and replaced with 100 μl of 100 μM of Lucifer Yellow (Sigma) solution to confirm the integrity of the monolayers. 225 μl of PBS(+) was added to each well and incubated at 37° C., 5% CO2 for 1 hour. The cell inserts were then discarded and the permeability of the membranes to Lucifer Yellow checked by measuring the fluorescence of the samples at 485 nm (excitation) and 530 nm (emission) on a Spectramax Gemini EM fluorescence microplate reader.
(§4) The amount of glucose transported across the cell monolayers was measured using a glucose assay based on Invitrogen's Amplex Red Glucose/Glucose oxidase Assay Kit. Briefly, 50 μl of each test sample was transferred to a black sided/clear bottom 96-well plate (Greiner Bio-One) to which 100 μl of reaction buffer (0.5 μl 10 mM Ampliflu Red, 1 μl 10 U/ml Horse Radish peroxidase, 1 μl 100 U/ml glucose oxidase and 97.5 μl PBS (all Sigma)) was added. After 10 minutes incubation at room temperature, the fluorescence of the samples were measured at 530 nm (excitation) and 590 nm (emission) on a Spectramax Gemini EM fluorescence microplate reader and the glucose concentration extrapolated from a standard curve.
(§5) At higher D-glucose concentrations, the SGLT1 transporter becomes saturated and consequently the majority of glucose transport across the monolayer is driven by the low affinity, high capacity GLUT2 transporter that is targeted to the apical membrane only following an initial SGLT1-dependent transport of glucose.

[1] = biological target: T2, Human Lactase Phloridzin Hydrolase (hLPH) (Homo sapiens, UniProt P09848); experiment: hLPH enzyme assay (glucoside hydrolysis by LPH extract from Caco-2 cells); assay type: in vitro ADME; conditions: for μM substrate hydrolysed/hr / Resistance to hydrolysis-% Q4G: glucoside 1.0 mM, 1 hour at 37° C.; for μM substrate hydrolysed/hr: 10% LPH extract (Caco2 cell-line), pH 6.0; for Resistance to hydrolysis-% Q4G: relative to Q4G, 10% LPH extract
T2 construct: endogenous in cells; host or cells: Caco-2 cells held at confluence for 21 days; trans-membrane protein extract passed through a G-25 Sephadex spin column
Description: Extracts were stored at −80° C. in 50 ul aliquots. Prior to use extracts were semi-purified, removing low molecular weight interfering components by passing through a small G-25 Sephadex 50-100 μl spin-column (Roche or ThermoFisher Scientific). 10 μl of semi-purified LPH extract was added to 90 μl of glucoside (1.0 mM final concentration) in 0.1 M maleate (Sigma) buffer, pH 6.0 and incubated for 60 minutes at 37° C. The reaction was terminated by addition of 200 μl 2M Tris (Sigma), pH 8.0. […] This allowed a full recovery of glucose which was measured using the Amplex® Red Glucose/Glucose Oxidase Assay. […] Fluorescence was read on a SpectraMax Gemini EM SN plate reader (Molecular Devices) (excitation. 530 nm and emission at 590 nm).

SGLT1 = biological target: T3, SGLT1 (Homo sapiens, UniProt P13866); experiment: Glucose transport inhibitor cell screening assay, 5 mM D-glucose for 15 minutes (SGLT1 inhibition); assay type: cell-based; conditions: for SGLT1 inhibitory activity (in words): Caco-2 cell model; for Class (assigned class of transporter inhibited): assigned from % inhibition at 5 mM and 25 mM D-glucose in Caco-2 cells
T3 construct: endogenous in cells; host or cells: differentiated Caco-2 cell monolayers (ATCC)
T3 sequence (P13866 1-664): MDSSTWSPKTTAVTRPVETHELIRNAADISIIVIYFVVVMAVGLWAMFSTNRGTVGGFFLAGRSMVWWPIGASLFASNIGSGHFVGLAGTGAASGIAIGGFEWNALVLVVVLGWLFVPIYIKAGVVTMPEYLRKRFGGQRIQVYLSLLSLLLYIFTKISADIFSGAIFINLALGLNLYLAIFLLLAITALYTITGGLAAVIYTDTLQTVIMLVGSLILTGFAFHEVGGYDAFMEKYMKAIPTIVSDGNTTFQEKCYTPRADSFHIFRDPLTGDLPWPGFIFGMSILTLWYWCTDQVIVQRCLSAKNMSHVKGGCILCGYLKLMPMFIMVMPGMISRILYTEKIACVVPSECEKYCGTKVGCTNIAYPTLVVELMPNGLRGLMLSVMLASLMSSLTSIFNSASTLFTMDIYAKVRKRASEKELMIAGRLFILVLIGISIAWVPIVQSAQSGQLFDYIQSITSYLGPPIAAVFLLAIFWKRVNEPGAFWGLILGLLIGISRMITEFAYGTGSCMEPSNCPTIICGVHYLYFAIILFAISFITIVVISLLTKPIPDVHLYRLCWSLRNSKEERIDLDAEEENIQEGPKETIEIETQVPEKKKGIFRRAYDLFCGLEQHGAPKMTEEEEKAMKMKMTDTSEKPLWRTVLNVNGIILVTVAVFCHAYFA
Description: as §1, §2, §3, §4, §5

[2] = differentiated Caco-2 monolayer, 30 minutes, active at 150 uM
[3] = differentiated Caco-2 monolayer, 5 mM D-glucose, 15 minutes, active at 300 uM

T2 sequence (P09848 869-1927): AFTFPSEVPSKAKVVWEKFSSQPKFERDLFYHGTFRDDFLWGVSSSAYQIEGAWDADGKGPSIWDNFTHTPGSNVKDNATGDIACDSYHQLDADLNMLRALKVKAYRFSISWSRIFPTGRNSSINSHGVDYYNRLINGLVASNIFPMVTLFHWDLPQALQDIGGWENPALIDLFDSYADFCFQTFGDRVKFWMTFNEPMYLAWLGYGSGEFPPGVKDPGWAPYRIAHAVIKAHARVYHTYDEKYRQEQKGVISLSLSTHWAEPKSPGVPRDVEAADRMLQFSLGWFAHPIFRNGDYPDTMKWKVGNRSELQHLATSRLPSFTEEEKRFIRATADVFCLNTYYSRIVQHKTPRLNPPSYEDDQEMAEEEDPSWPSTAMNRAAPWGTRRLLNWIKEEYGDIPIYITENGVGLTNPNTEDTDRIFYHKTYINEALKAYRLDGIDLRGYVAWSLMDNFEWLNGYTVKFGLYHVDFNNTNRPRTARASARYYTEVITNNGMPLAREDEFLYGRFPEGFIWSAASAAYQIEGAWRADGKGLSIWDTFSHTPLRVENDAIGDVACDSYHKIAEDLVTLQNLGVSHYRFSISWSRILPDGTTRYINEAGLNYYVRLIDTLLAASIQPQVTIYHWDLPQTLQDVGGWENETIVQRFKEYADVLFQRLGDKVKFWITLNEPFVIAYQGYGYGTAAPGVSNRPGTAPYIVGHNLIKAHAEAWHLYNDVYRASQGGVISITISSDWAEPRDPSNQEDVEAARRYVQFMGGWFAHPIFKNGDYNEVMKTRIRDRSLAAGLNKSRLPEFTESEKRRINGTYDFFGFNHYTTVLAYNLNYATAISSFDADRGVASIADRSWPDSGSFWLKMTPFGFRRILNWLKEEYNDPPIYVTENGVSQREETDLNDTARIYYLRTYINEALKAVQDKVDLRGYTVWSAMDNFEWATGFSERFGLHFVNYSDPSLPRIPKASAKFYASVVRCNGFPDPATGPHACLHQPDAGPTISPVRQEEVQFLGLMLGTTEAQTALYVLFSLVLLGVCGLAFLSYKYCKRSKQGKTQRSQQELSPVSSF

| inhibition at 150 µM (GLUT2; [2]) [%] | inhibition at 300 µM (SGLT1; [3]) [%] | SMILES | μM substrate hydrolysed/hr [1] | SGLT1 inhibitory activity (in words) (SGLT1; 5 mM D-glucose) | Class (assigned class of transporter inhibited) (SGLT1) | other results |
| --- | --- | --- | --- | --- | --- | --- |
| 55 | 76.8 | O=c1c(O)c(-c2cc(O)c(O)c(O)c2)oc2cc(O)cc(O)c12 [Myricetin] | – | – | GLUT2 (GLUT2 inhibitors having ≧20% inhibition at both 5 mM and 25 mM D-glucose levels) | – |
| 57 | 69 | O=C1C[C@@H](c2ccc(O)cc2)Oc2cc(O)cc(O)c21 [Naringenin] | – | – | GLUT2 (GLUT2 inhibitors having ≧20% inhibition at both 5 mM and 25 mM D-glucose levels) | – |
| 48.1 | 47.7 | O=C1C[C@@H](c2ccccc2)Oc2cc(O)cc(O)c21 [Pinocembrin] | – | – | GLUT2 (GLUT2 inhibitors having ≧20% inhibition at both 5 mM and 25 mM D-glucose levels) | – |

More lines, now with the values behind:

| SMILES | inhibition at 150 µM (GLUT2; [2]) [%] | inhibition at 300 µM (SGLT1; [3]) [%] | μM substrate hydrolysed/hr [1] | SGLT1 inhibitory activity (in words) (SGLT1; 5 mM D-glucose) | Class (assigned class of transporter inhibited) (SGLT1) | other results |
| --- | --- | --- | --- | --- | --- | --- |
| O=c1cc(-c2ccc(O)cc2)oc2c([C@@H]3O[C@H](CO)[C@@H](O)[C@H](O)[C@H]3O)c(O)cc(O)c12 [Apigenin-8-C-glucoside] | – | – | 0.685 μM substrate hydrolysed/hr | inhibition of SGLT1 | SGLT1 | % Glucose Transport inhibition 25 mM (GLUT2; [2]): 5.76%; Resistance to hydrolysis-% Q4G [1]: 77.90%; % Glucose Transport inhibition 5 mM (SGLT1; [3]): 33.84% |
| O=c1c(O[C@@H]2O[C@H](CO)[C@@H](O)[C@H](O)[C@H]2O)c(-c2ccc(O)cc2)oc2cc(O)cc(O)c12 [Kaempferol 3-O-glucoside] | – | – | 0.224 μM substrate hydrolysed/hr | inhibition of SGLT1 | SGLT1 | Resistance to hydrolysis-% Q4G ([1]; listed as K3G): 92.8% and 92.78% |
| OC[C@H]1O[C@@H](Oc2cc3c(O)cc(O)cc3[o+]c2-c2ccc(O)cc2)[C@H](O)[C@@H](O)[C@@H]1O [Pelargonidin-3-glucoside] | – | – | 1.272 μM substrate hydrolysed/hr | inhibition of SGLT1 | SGLT1 | Resistance to hydrolysis-% Q4G [1]: 58.94% |
| O=C(CCc1ccc(O)cc1)c1c(O)cc(O)cc1O[C@@H]1O[C@H](CO)[C@@H](O)[C@H](O)[C@H]1O [Phloridzin, reference compound] | – | – | 0.507 μM substrate hydrolysed/hr | – | – | Resistance to hydrolysis-% Q4G [1]: 83.64% |
| O=c1c(O[C@@H]2O[C@H](CO)[C@@H](O)[C@H](O)[C@H]2O)c(-c2ccc(O)c(O)c2)oc2cc(O)cc(O)c12 [Quercetin-3-glucoside] | – | – | 0.178 μM substrate hydrolysed/hr | inhibition of SGLT1 | SGLT1 | – |
| O=c1c(O)c(-c2ccc(O[C@@H]3O[C@H](CO)[C@@H](O)[C@H](O)[C@H]3O)c(O)c2)oc2cc(O)cc(O)c12 [Quercetin-4-glucoside, reference compound] | – | – | – | inhibition of SGLT1 | SGLT1 | degradation by hLPH (in words) ([1]; Caco-2): highest degree of degradation by hLPH |
| O=c1c(O)c(-c2ccc(O)c(O)c2)oc2cc(O)cc(O)c12 [Quercetin] | 61.4 | 80.8 | – | – | GLUT2 (GLUT2 inhibitors having ≧20% inhibition at both 5 mM and 25 mM D-glucose levels) | – |
| O=C(O)/C=C/c1ccc(O)c(O)c1 [caffeic acid] | – | – | – | no inhibitory activity | – | GLUT2 inhibitory activity (in words) (GLUT2): no inhibitory activity |
| O=C(/C=C/c1ccc(O)c(O)c1)O[C@@H]1C[C@](O)(C(=O)O)C[C@@H](O)[C@H]1O [chlorogenic acid] | – | – | – | no inhibitory activity | – | GLUT2 inhibitory activity (in words) (GLUT2): no inhibitory activity |
| O=C(/C=C/c1ccc(O)c(O)c1)O[C@H](Cc1ccc(O)c(O)c1)C(=O)O [rosmarinic acid] | – | – | – | no inhibitory activity | – | GLUT2 inhibitory activity (in words) (GLUT2): no inhibitory activity |
